Two compounds from patent publication US8728797B2, “Yeast membrane protein expression system and its application in drug screening” (priority 2001, dated 2014) can be followed below.

Test [1] relates to SfiI-containing construct expressing Pdr5p. Nature of the test: MIC, SfiI-containing Pdr5p construct. It is filed as cell-based, S. cerevisiae. The settings on record: low Pdr5p expression. As to the method: The MICs of antifungal agents for S. cerevisiae cells were determined by a microdilution test based on the macrodilution reference method of the National Committee for Clinical Laboratory Standards. Cells (10 μl cell suspension, 2×10^5 cells/ml) were inoculated into 90 μl CSM-URA, buffered with 10 mM 2-(N-morpholino)ethanesulfonic acid (MES) and 18 mM N-2-hydroxyethylpiperazine-N′-2-ethanesulfonic acid (HEPES), pH 7.0 and containing 0.67% (w/v) yeast nitrogen base (YNB) in microtitre plate wells. For the uracil-requiring strain AD1-8u^− the medium was supplemented with 0.02% (w/v) uridine. The wells contained, in […], doubling dilutions of antifungal agents (final concentrations: fluconazole, 40-0.078 μg/ml; itraconazole and ketoconazole, 8-0.016 μg/ml). The microtitre plates were incubated at 30° C. for 48 h with shaking and then the growth of cells in individual wells (OD590) was measured with a microplate reader (EL 340, Bio-Tek, Winooski, Vt.). The MIC80 was the lowest concentration of drug that inhibited growth yield by at least 80% compared to a no-drug control.

The next test concerns Cdr1p ATPase. Nature of the test: Oligomycin sensitive ATPase/NTPase activity of AD1002 plasma membranes. It is filed as biochemical, C. albicans. Conditions: ratio of inhibitory concentrations Cdr1p/Pdr5p. The procedure: Membrane fractions were isolated from S. cerevisiae AD1002 (▪) or parental AD1-8u^− cells (●). ATPase assays were carried out at 30° C. for 30 min, as described in Materials and methods for Example 2. The oligomycin-sensitive activity was determined as the difference in ATPase activity in the presence and absence of 20 μM oligomycin. […] The results are the means (+/−SD) of four determinations carried out on two membrane preparations.
(B) Inhibition profile with KN20 on the oligomycin-sensitive Cdr1p ATPase activity of plasma membranes from AD1002 minus the oligomycin-sensitive ATPase activity of plasma membranes from the isogenic AD1-8u^− strain.
Yeast were grown in YEPD, pH 5.5 at 30° C. until they reached late-exponential phase of growth (OD600 nm=7), washed twice in ice-cold distilled water, and incubated on ice for 30 min to minimize glucose-stimulated Pma1p activity. Cells were resuspended in homogenising medium (50 mM Tris pH 7.5, 2 mM EDTA and 1 mM phenylmethylsulfonyl fluoride) and disrupted using a Braun Homogeniser. Cell debris and unbroken cells were removed by centrifuging at 2,000×g at 4° C. for 10 min. A crude membrane fraction was isolated from the cell-free supernatant by centrifuging at 30,000×g at 4° C. for 45 min. Plasma membranes were prepared by centrifugation of the supernatant obtained after selective precipitation of mitochondria at pH 5.2 as described previously (Goffeau, A. and Dufour, J. P., 1988). The plasma membranes were resuspended in 10 mM Tris pH 7.0, 0.5 mM EDTA and 20% [v/v] glycerol and stored at −80° C. Protein was determined using a micro-Bradford (Bio-Rad Laboratories, Hercules, Calif. [Bradford, M. M., 1976]) assay with gamma-globulin as standard. Nucleotide triphosphatase activity was measured by incubating the plasma membrane fractions (10 μg) at 30° C. in a final volume of 120 μl containing 6 mM NTP, 7 mM MgSO4 in 59 mM MES-Tris buffer pH 6.0-8.0. To eliminate possible contributions from nonspecific phosphatases, vacuolar, or mitochondrial ATPases, 0.2 mM ammonium molybdate, 50 mM KNO3 and 10 mM NaN3, respectively, were included in assays (Monk B C, et al, 1991). Other ATPase inhibitors (20 μM oligomycin, 20 μM aurovertin B or 100 μM vanadate were added to the reaction where indicated. After 30 min the reaction was stopped by adding 130 μl of a solution containing 1% (w/v) SDS, 0.6 M H2SO4, 1.2% (w/v) ammonium molybdate and 1.6% (w/v) ascorbic acid. Inorganic phosphate released from NTPs was measured at 750 nm after 10 min incubation at room temperature.

The next test relates to AD124567 cells. Nature of the test: Glucose-dependent rhodamine 6G efflux. The class given is cell-based, S. cerevisiae. The settings on record: 40 μM KN20, 5 minute preincubation. As to the method:
De-energised cells were pre-loaded with rhodamine 6G, as described in Materials and methods for Example 4. The efflux of rhodamine 6G at 30° C. was followed by direct measurement of fluorescence in cell supernatants following glucose (2 mM) addition to cell suspensions. (A) The kinetics of energy-dependent rhodamine 6G efflux in strains AD1002 (▪) and AD1-8u^− (●). The fluorescence in supernatants of AD1002 cells in the absence of added glucose is also shown (◯). (B) The effect of KN20 concentration on the energy-dependent efflux of rhodamine 6G from AD124567 cells. The indicated concentrations of KN20 were added to AD124567 cells preloaded with rhodamine 6G, the cells were preincubated for 5 minutes at 30° C. and glucose added to commence rhodamine efflux.
A previously described method (Kolaczkowski, M et al. 1996) was adapted to measure rhodamine 6G (Sigma) efflux from whole cells. Yeast cells from exponentially growing cultures in YEPD (OD600 nm=0.5) were collected by centrifugation (3,000×g, 5 min, 20° C.) and washed three times with water. The washed cells were resuspended at a concentration of 0.5×10^6 to 1.0×10^7 cells per ml in HEPES-NaOH (50 mM, pH 7.0) containing 5 mM 2-deoxyglucose and 10 μM rhodamine 6G. […] The rhodamine 6G fluorescence of samples was measured using a Cary Eclipse spectrofluorimeter (Varian Inc, Victora Australia). […]

As for `OC(Cn1cncn1)(Cn1cncn1)c1ccc(F)cc1F` [fluconazole], the MIC in test [1] is listed as less than 40 mu.g/ml.

On to “D-octapeptide NH2-Asn-Trp-Trp-Lys-Val-Arg-Arg-Arg-CONH2 with a single 4-methoxy-2,3,6-trimethylbenzenesulphonyl (Mtr) substituent on one tryptophan sidechain; Pdr5p inhibitor [KN20]”, for which the “Cdr1p ATPase inhibition concentration relative to Pdr5p ATPase” value in the test on Cdr1p ATPase amounted to 2.7 fold. Besides, in the test on AD124567 cells, the “inhibition of rhodamine 6G efflux” value amounted to 50%.
